Measured values reported in patent publication US9302991B2, “Arylamide derivatives as TTX-S blockers” (RaQualia Pharma Inc., priority 2010, dated 2016).

Each compound was assayed against T1, human Nav1.3 channels (Homo sapiens, UniProt Q9NY46) (assay: FRET assay, human Nav1.3 (EFS on FDSS)). Details: HEK293 cells expressing human Nav1.3, read-out: IC50 against Nav1.3.
T1 construct: expressed in transfected cells; host or cells: HEK293
Assay type: cell-based
Method: The inhibitory activities of compounds against voltage gated sodium channels are determined by methodology well known in the art.
The ability of the aryl substituted carboxamide derivatives of the formula (I) to inhibit the NaV1.3, Nav1.7 and Nav1.5 channels is measured by Fluorescence Resonance Energy Transfer (FRET) assay and electrophysiology assay described below.
This screen is used to determine the effects of compounds on human Nav1.3, human Nav1.7, and human Nav1.5 channels, utilising electrical field stimulation (EFS) system in 96-well plate format on FDSS (Hamamatsu Photonics) platform. The change of membrane potential is monitored with FRET dye pair, oxonol (DiSBAC2(3)) and coumarin (CC2-DMPE).
Each HEK293 cells expressing human Nav1.3 channels and HEK293 cells expressing human Nav1.5 channels are grown in T225 flasks, in a 5% CO2 humidified incubator to about 80% confluence. Media composition consists of Dulbecco's Modified Eagle Medium (high glucose), 10% FCS, 100 units/mL Penicillin, 100 microgram/mL Streptomycin and 500 microgram/mL Geneticine.
Protocol: • Seed each cell lines (1×10^5 cells/well) into poly-D-lysine coated 96-well plates prior to experimentation. • Incubate at 37° C. in 5% CO2 for 24 hours. • Wash each well with assay buffer (140 mM NaCl, 4.5 mM KCl, 10 mM D-Glucose, 2 mM CaCl2, 1 mM MgCl2, 10 mM HEPES, pH 7.4 adjusted with NaOH) twice. • Add 1st loading solution containing 10 microM CC2-DMPE and 0.06% Pluronic F-127 in assay buffer. • Incubate the plate at room temperature in dark for 1 hour. • Remove 1st loading solution and added 2nd loading solution containing 15 microM DiSBAC2(3), 0.555 mM VABSC-1 and 0.004% Pluronic F-127 in assay buffer. • Place the plate under the dark at room temperature for 25 minutes. • Add compound solutions into the assay plate. • Set the assay plate in FDSS and placed an EFS device on the plate. • Measure EFS-induced fluorescent response by FDSS.
The data are analyzed and reported as normalized ratios of intensities measured at […]. The process of calculating these ratios is performed as follows:
This analysis is performed using a computerized specific program designed for FDSS generated data. Fluorescence ratio values are plotted using XLfit to determine an IC50 value for each compound.

T1 sequence (Q9NY46 whole entry): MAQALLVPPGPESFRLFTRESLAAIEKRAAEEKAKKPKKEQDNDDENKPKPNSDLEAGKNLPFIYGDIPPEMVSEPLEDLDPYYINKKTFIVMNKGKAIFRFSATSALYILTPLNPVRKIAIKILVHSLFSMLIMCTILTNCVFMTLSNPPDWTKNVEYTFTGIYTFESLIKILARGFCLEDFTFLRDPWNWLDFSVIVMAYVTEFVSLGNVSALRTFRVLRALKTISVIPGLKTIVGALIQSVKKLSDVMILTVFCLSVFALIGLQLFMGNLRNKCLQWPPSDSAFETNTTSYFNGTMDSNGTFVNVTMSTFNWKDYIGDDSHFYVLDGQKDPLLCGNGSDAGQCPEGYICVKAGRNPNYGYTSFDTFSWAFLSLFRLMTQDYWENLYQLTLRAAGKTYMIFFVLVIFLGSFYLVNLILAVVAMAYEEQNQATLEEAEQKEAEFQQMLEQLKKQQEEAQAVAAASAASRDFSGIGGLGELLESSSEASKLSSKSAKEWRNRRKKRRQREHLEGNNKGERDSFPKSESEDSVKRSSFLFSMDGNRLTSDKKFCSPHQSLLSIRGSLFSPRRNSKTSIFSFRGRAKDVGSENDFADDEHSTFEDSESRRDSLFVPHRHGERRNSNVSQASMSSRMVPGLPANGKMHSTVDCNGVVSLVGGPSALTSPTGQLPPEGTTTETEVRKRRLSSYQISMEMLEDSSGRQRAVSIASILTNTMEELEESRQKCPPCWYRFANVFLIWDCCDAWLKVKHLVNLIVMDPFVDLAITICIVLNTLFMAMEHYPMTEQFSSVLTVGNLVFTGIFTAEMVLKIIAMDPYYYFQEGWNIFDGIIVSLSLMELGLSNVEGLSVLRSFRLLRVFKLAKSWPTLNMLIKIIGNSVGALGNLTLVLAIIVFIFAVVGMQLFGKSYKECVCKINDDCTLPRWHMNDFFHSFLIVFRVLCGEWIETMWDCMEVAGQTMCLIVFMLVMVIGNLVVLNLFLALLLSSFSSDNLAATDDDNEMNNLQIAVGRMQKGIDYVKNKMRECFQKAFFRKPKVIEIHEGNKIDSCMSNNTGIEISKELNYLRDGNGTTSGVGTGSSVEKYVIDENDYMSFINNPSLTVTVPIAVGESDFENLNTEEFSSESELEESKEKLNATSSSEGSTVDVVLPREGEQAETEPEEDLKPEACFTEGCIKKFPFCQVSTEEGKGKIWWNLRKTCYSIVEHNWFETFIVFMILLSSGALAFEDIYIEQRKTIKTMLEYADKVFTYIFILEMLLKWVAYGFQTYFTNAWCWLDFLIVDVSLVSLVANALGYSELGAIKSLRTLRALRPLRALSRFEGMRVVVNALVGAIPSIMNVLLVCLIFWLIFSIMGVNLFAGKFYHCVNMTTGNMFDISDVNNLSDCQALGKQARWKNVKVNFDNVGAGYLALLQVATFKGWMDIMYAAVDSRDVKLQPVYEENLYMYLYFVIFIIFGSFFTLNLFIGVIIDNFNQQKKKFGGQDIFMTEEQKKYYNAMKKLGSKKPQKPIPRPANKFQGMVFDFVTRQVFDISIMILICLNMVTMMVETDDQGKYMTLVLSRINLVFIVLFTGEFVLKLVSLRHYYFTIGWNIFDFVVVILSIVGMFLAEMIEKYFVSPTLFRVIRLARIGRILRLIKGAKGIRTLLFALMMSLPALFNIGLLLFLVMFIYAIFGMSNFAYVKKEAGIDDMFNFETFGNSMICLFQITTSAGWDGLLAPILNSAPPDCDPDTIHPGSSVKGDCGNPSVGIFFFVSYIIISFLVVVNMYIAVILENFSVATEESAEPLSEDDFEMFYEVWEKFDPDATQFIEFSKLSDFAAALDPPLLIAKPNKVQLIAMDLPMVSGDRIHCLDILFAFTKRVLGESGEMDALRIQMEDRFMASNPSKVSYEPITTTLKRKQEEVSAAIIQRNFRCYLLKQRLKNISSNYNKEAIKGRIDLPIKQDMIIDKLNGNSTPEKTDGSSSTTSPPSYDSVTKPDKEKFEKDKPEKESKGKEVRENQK

IC50, < 1 µM:
Cc1cc(CNC(=O)c2ccnc(NC(=O)C3CC3)c2)nc(OCC(F)(F)F)c1 [Example 578, 2-(cyclopropanecarboxamido)-N-((4-methyl-6-(2,2,2-trifluoroethoxy)pyridin-2-yl)methyl)isonicotinamide]
O=C(NCc1cccc(OCC(F)(F)F)n1)c1ccnc(NC(=O)C2CC2)c1 [Example 465, 2-(cyclopropanecarboxamido)-N-((6-(2,2,2-trifluoroethoxy)pyridin-2-yl)methyl)isonicotinamide]
CC(=O)Nc1cc(C(=O)NCc2cccc(OCC(F)(F)F)n2)cc(C)n1 [Example 466, 2-acetamido-6-methyl-N-((6-(2,2,2-trifluoroethoxy)pyridin-2-yl)methyl)isonicotinamide]
CCC(=O)Nc1cc(C(=O)NCc2cc(C)cc(OC(F)(F)F)c2)ccn1 [Example 598, N-(3-methyl-5-(trifluoromethoxy)benzyl)-2-propionamidoisonicotinamide]
CCC(=O)Nc1cc(C(=O)NCc2ccc(F)c(OC(F)(F)F)c2)cc(C)n1 [Example 591, N-(4-fluoro-3-(trifluoromethoxy)benzyl)-2-methyl-6-propionamidoisonicotinamide]
CC(=O)Nc1cc(C(=O)NCc2ccc(Cl)c(C(F)(F)F)c2)ccn1 [Example 682, 2-acetamido-N-(4-chloro-3-(trifluoromethyl)benzyl)isonicotinamide]
CCC(=O)Nc1cc(C(=O)NCc2cc(OC(F)(F)F)ccc2F)cc(C)n1 [Example 609, N-(2-fluoro-5-(trifluoromethoxy)benzyl)-2-methyl-6-propionamidoisonicotinamide]
O=C(NCc1cccc(OC(F)(F)F)c1F)c1ccnc(NC(=O)C2CC2)c1 [Example 748, 2-(cyclopropanecarboxamido)-N-(2-fluoro-3-(trifluoromethoxy)benzyl)isonicotinamide]
CCC(=O)Nc1cc(C(=O)NCc2cc(C(F)(F)F)ccc2F)ccn1 [Example 572, N-(2-fluoro-5-(trifluoromethyl)benzyl)-2-propionamidoisonicotinamide]
CC(=O)Nc1cc(C(=O)NCc2cccc(C(F)(F)F)c2F)cc(C)n1 [Example 729, 2-acetamido-N-(2-fluoro-3-(trifluoromethyl)benzyl)-6-methylisonicotinamide]
CC(=O)Nc1cc(C(=O)NCc2cnc(OCC(F)F)c(C)c2)cc(C)n1 [Example 742, 2-acetamido-N-((6-(2,2-difluoroethoxy)-5-methylpyridin-3-yl)methyl)-6-methylisonicotinamide]
CCc1cc(CNC(=O)c2ccnc(NC(=O)C3CC3)n2)cnc1OCC(F)(F)F [Example 717, 2-(cyclopropanecarboxamido)-N-((5-ethyl-6-(2,2,2-trifluoroethoxy)pyridin-3-yl)methyl)pyrimidine-4-carboxamide]
CCC(=O)Nc1cc(C(=O)NCc2ccc(OCC(F)(F)F)nc2)ccn1 [Example 151, 2-propionamido-N-((6-(2,2,2-trifluoroethoxy)pyridin-3-yl)methyl)isonicotinamide]
Cc1cc(CNC(=O)c2cc(C)nc(NC(=O)C(C)C)c2)nc(OCC(F)(F)F)c1 [Example 577, 2-isobutyramido-6-methyl-N-((4-methyl-6-(2,2,2-trifluoroethoxy)pyridin-2-yl)methyl)isonicotinamide]
O=C(NCc1cc(OC(F)(F)F)ccc1F)c1ccnc(NC(=O)C2CC2)c1 [Example 608]
